Test results: US9139810B2, “Method for culturing microorganisms to incorporate a substitue element” (priority 2010, dated 2015)

Key:
E. coli K12 NBRC3301 [1] = assay type: cell-based, Escherichia coli
E. coli K-12 (NBRC3993) = details: additive (mg/mL as printed in the row) to S(−)fa medium, 37° C.
E. coli K12NBRC3301 = assay: S starvation, adaptation culture with dSi and elementary analysis of cells by ICP-MS (Example 16); assay type: cell-based, Escherichia coli
B. subtilis NBRC13719 = assay type: cell-based, Bacillus subtilis; details: Glc(1) + Yex (0.5); day 5
E. coli K12 NBRC 3301 = assay: Growth and Si content of acetone-treated cells by ICP/MS (Example 4); assay type: cell-based, Escherichia coli; details: lac 1 + compound 5
[2] = system: B. subtilis Marburg NBRC13719; assay: as above; assay type: cell-based, Bacillus subtilis; details: for D 1 OD 660 nm: 22 hours; for D1ACW: acetone-treated dried cells
E. coli K12 NBRC3301 [3] = details: C(αC)Y medium, FIG. 1
E. coli K12 NBRC3301 [4] = assay: Growth and adaptation culture in C(αC+X)Y medium with mmSi (Example 2, FIG. 2); assay type: cell-based, Escherichia coli
Experimental: A C source-limited medium (C(αC) medium) was prepared by adding a limited amount of lactate Na as C source (denoted as “αC”) to a C source-deleted C (−) medium. Escherichia coli growth was then examined using a C(αC+X) medium prepared by adding a methyl group-containing organic silicon compound mmSi (methyltrimethoxysilane (see Tables 2 and 3 for abbreviations for the compound)) to the C(αC) medium as a C source substitute compound; that is, an X-containing compound. Moreover, the effects resulting from adaptation culture were examined (specifically, after completion of the 1st (T1) culture, 2nd subculture (T2) was started in a medium of the same composition).
C source substitute compound: X: mmSi (methyltrimethoxysilane). Culture conditions: 100 mL/Erlenmeyer flask; 33° C.; and 130 rpm. At the time of completion of the 1st culture of, a portion of the culture fluid was pipetted off. Cells were washed by centrifugation and then seeded in a medium of the same composition. The OD value at the initiation of the subculture was adjusted to be close to the initial OD value of the 1st culture generation.
In a manner similar to that in Example 1, E. coli K12 starter cells were grown in a GY medium, cells were washed, and then subjected to C source starvation culture. The resulting cells were seeded as starter cells in a medium. On day 2, the 1st culture (denoted as “T1d2” in FIG. 2) cells were washed and then the cells were seeded as starter cells in a medium of the same composition for 2nd subculture for adaptation. On day 2 of the 2nd subculture (T2d2), the growth was measured.

S. cerevisiae NBRC0268 = assay: Growth and Si content of acetone-treated cells by ICP/MS (Example 4); assay type: cell-based, Saccharomyces cerevisiae; details: lac 3 + compound 5
[5] = lac 2 mg/mL + Y 0.5 mg/mL, FIG. 2
[6] = S(dSi)fa medium, d 3, mean of 2 to 3 flasks

## O=BOB(O)OB(O)OB=O [BB, Borax or sodium borate]
E. coli K12 NBRC3301 [1]; C source substitute compound
  colony count and OD value compared with medium with only limited C source: increased
E. coli K12 NBRC3301 [1]; Lac (2) + Y, X (10), day 5
  OD 660 nm (d5): 1.59

## N[C@@H](CS)C(=O)O [L-cysteine]
E. coli K-12 (NBRC3993)
  Amount of E. coli K12NBRC3993 growth OD660 × 10 d (cultured for 1 day): 0.240

## O=S(=O)([O-])[O-].[Na+].[Na+] [Sodium sulfate, Sodium sulfate, anhydrous, reference compound]
E. coli K12NBRC3301; test 2, S(−)fa + Na2SO4 (0.2 mg/mL), d3
  OD 660 nm: 200 (OD 4.2)
E. coli K-12 (NBRC3993)
  Amount of E. coli K12NBRC3993 growth OD660 × 10 d (cultured for 1 day): 0.144

## CCO[Si](C)(C)OCC [emSi, Diethoxydimethylsilane]
B. subtilis NBRC13719
  OD 660 nm (d5): 6.69
E. coli K12 NBRC 3301; 22 hours
  D 1 OD 660 nm: 1.79
E. coli K12 NBRC 3301; acetone-treated dried cells
  D1ACW: 203 mg/100 mL
[2]; lac 1 + compound 5
  D 1 OD 660 nm: 2.48
  D1ACW: 289 mg/100 mL

## CCO [ethanol]
E. coli K12 NBRC3301 [3]
  OD with ethanol equimolar to the ethyl group in emSi, compared with emSi: lower than that of emSi

## CO[Si](C)(OC)OC [mmSi, Methyltrimethoxysilane]
E. coli K12 NBRC3301 [4]; adaptation culture, T2d2 vs T1d2
  amount of growth in 2nd subculture versus 1st subculture: higher than that of the 1st subculture
E. coli K12 NBRC3301 [4]; [5]
  OD value compared with control (only limited amount of C source): increased
  dose dependence of increases in OD value: in a dose-dependent manner
E. coli K12 NBRC3301 [4]; no limited C source (rightmost in FIG. 2)
  growth on the compound alone: did not grow
[2]; lac 3 + compound 5
  D 1 OD 660 nm: 2
  D1ACW: 309 mg/100 mL
S. cerevisiae NBRC0268; 22 hours
  D 1 OD 660 nm: 3.14
S. cerevisiae NBRC0268; acetone-treated dried cells
  D1ACW: 274 mg/100 mL

## Sodium disilicate [dSi]
E. coli K12NBRC3301; [6]
  OD 660 nm at end of 4th subculture of adaptation culture: 1.93
  OD 660 nm at end of 5th subculture of adaptation culture: 3.22
E. coli K12NBRC3301; S(dSi)fa medium, d 7, mean of 2 to 3 flasks
  OD 660 nm at end of 3rd subculture of adaptation culture: 1.91
E. coli K12NBRC3301; S(dSi)fa medium, d 9, mean of 2 to 3 flasks
  OD 660 nm at end of 2nd subculture of adaptation culture: 2.00
E. coli K12NBRC3301; S(dSi)fa medium, d 13, mean of 2 to 3 flasks
  OD 660 nm at end of 1st subculture of adaptation culture: 2.13
E. coli K12NBRC3301; test 3, S(−)fa + Na2SO4 (0.02) + dSi (0.4 mg/mL), d3
  OD 660 nm: 170 (OD 6.0)
E. coli K12NBRC3301; test 4, S(−)fa + dSi (0.4 mg/mL), no S source, d4
  OD 660 nm: 190 (OD 3.0)
